# Experimental data reported in patent US12577213B2 (NINGBO COMBIREG PHARMACEUTICAL TECHNOLOGY CO., LTD., priority 2020, dated 2026).
# System: xenograft of human lung cancer NCI-H522 in nude mice
# Test: Xenograft tumor growth inhibition, NCI-H522
# Type: in vivo, BALB/c nude mice
# Conditions: iv., q4d × 6
# Protocol: The embodiment compound was prepared as a 40× stock solution of DMSO and diluted to the administered concentration with saline containing 2.5% Tween 80 (Tween 80) used before;
# Male BALB/c nude mice, 4-5 weeks old, were purchased from Beijing Vital River Laboratory Animal Technology Co., Ltd, with a license No. SCXK(Beijing)2012-0001, and the mice were bred in the SPF-class laboratory animal center of Tsinghua University. The tumor lines used in the experiment were: xenograft of human lung cancer NCI-H522 in nude mice, xenograft of human colon cancer HCT-116 in nude mice.
# Tumor-bearing animals with good tumor growth and overall condition were selected and sacrificed by cervical dislocation. The tumors were removed under aseptic condition, cut into tumors with 2-3 mm diameter by a scalpel, and inoculated subcutaneously behind the armpit of nude mice by trocar. The tumors grew naturally and were randomly grouped after the tumor volume grew to 105 mm^3, and the administration date of grouping was set as D0 (Day 0).
# Grouping experiment, with 7-9 animals in each group, starting from now on, administration was started according to the weight of the animals. During the administration process, the long, short diameter of the tumors and weight of animals were measured every 2-3 days, and the tumor size was calculated by the formula: (½)×long diameter×(short diameter)^2, and the experiment was ended on the 27th day (D27) after grouping. At the end of the experiment, the animals were sacrificed by cervical dislocation, the tumors were peeled off and weighed, and the inhibitory rates of the drugs on tumor growth were calculated. Tumor volume (TV) and relative tumor volume (RTV) were calculated. T test was used to compare the statistical significance of the differences in tumor weight, tumor volume and RTV of the animals in each group.
# Calculation formulas are as follows: average tumor weight in the vehicle control group−average tumor weight in the treatment group Tumor inhibition rate (%)=(average tumor weight in the vehicle control group−average tumor weight in the treatment group)[…](average tumor weight in the vehicle control)×100. Tumor volume (TV)=(length×width^2)/2. Relative tumor volume (RTV)=Vt/Vo (wherein, Vo is the TV measured at the time of grouping and administration, and Vt is the TV at each subsequent measurement).
# [formula] • Efficacy evaluation criteria: T/C (%)>40 is invalid; • T/C (%)≤40, and P<0.05 is effective after statistical processing. 4.
compound,measurement,setting,value
"[2H]C([2H])([2H])Oc1cc(C(=O)Nc2cc3c(cc2Oc2cc(C)cc(C)c2)C(=O)N[C@@H](CC(=O)N(C([2H])([2H])C([2H])([2H])[2H])C([2H])([2H])C([2H])([2H])[2H])C(=O)N3)c(Br)c(OC([2H])([2H])[2H])c1OC([2H])([2H])[2H] [Compound 5, (S)-2-bromo-N-[3-[2-[bis(pentadeuteroethyl)amino]-2-oxoethyl]-7-(3,5-dimethylphenoxy)-2,5-dioxo-2,3,4,5-tetrahydro-1H-benzo[e][1,4]diazepin-8-yl]-3,4,5-tris(trideuteromethoxy)benzamide]",T/C (%),12.5 mg/kg,31.7%
same,Tumor weight inhibition (%),12.5 mg/kg,72.03%
same,T/C (%),25 mg/kg,21.2%
same,Tumor weight inhibition (%),25 mg/kg,84.20%
same,T/C (%),50 mg/kg,14.2%
same,Tumor weight inhibition (%),50 mg/kg,90.02%
